# Data taken from PubChem BioAssay AID2820 (Sanford-Burnham Center for Chemical Genomics, 2010).
# Target: G-protein coupled receptor 55 (Homo sapiens) (UniProt Q9Y2T6)
# Experiment: blockade of LPI-induced GPR55 arrestin translocation – imaging, U2OS, beta-arrestin-GFP, LPI agonist, set 2, SAR follow-up (AID 2820)
# Conditions: LPI antagonism
# Sequence of G-protein coupled receptor 55 (Homo sapiens) (Q9Y2T6 whole entry, looked up): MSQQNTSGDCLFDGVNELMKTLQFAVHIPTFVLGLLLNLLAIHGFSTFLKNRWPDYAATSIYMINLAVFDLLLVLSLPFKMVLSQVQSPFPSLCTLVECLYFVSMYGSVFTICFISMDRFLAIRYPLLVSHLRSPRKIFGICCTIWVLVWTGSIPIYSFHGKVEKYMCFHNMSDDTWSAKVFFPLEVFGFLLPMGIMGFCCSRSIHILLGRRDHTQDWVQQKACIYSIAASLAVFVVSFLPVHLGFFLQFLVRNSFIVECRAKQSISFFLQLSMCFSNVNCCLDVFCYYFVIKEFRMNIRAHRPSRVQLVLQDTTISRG
row,IC50 [nM],SMILES
1,1080,Cc1ccc(C2(C(=O)N3CCC(n4nc(-c5ccccc5)oc4=O)CC3)CC2)cc1
2,1090,Cc1cc(OCC(=O)Nc2ccc(S(=O)(=O)NC3=NCCCCC3)cc2)c(C(C)C)cc1Cl
3,865,O=C(c1ccco1)N1CCN(c2nc(C3CC3)nc3sc4c(c23)CCCC4)CC1

row,SMILES,IC50 [nM]
1,Cc1nc(N2CCN(C(=O)c3ccco3)CC2)c2c3c(sc2n1)CCCC3,702
